# Target: type 4 phosphodiesterases (PDE4)
# Experiment: Inhibition of the phosphodiesterase (PDE4), enzymatic preparation from line U937
# Type: biochemical
# Conditions: PDE4 from cytosolic preparation of human cell line U937
# Description: The capacity of the formula (I) compounds of the invention to inhibit the cyclic nucleotide phosphodiesterases is evaluated by their Cl50 measurement (necessary concentration to inhibit 50% of enzymatic activity).
# The type 4 phosphodiesterases are obtained from a cytosolic preparation extracted from the human origin cellular line U937 according to a method adapted from T. J. Torphy and al., 1992, J.Pharm.Exp. Ther. 263: 1195-1205
# The other classes of phosphodiesterases are obtained after partial purification FPLC on Mono Q column. (anion exchange column) according to a method adapted from Lavan B. E., Lakey T., Houslay M. D. Biochemical Pharmacology, 1989, 38(22), 4123-4136., and from Silver P. J and al., 1988, Eur.J. Pharmacol. 150: 85-94, either, from human origin cellular lines for PDE 1 (monocytar line TPH1) and PDE5 (line MCF7 issued from an adenocarcinoma), or from dog aorta for PDE 3, or for the human PDE3A, from gene cloning in insect cells SF21 in baculovirus, according to a method adapted from Luckow, V. A. and al., 1991 in Recombinant DNA Technology&Applications.,eds. Prokop, Bajpai,R. K.&Ho,C. S., pp97-152. The enzymatic activity measurement of the different PDE classes, and in particular the PDE 4, is performed according to a method adapted from W. J. Thompson and al. 1979, Advances in Cyclic Nucleotide Research, Vol. 10: 69-92, ed. G. Brooker and al. Raven Press, NY.
# For the Cl50 determination, the enzymatic activity is measured in the presence of inhibitor within concentration margins of 0.1 to 100 μM.
# The following table illustrates the PDE4 inhibitory activity from enzymatic preparation obtained from the line U937.
row,Compound,IC50 [nM]
1,"O=c1c2cc(Cl)ccc2n2c(N3CCCCCC3)nnc2n1CC=Cc1ccccc1 [Compound 1, 1-(Azepan-1-yl)-7-chloro-4-(3-phenylallyl)-4H-[1,2,4]triazolo[4,3-a]quinazolin-5-one]",54
2,"O=c1c2cc(Cl)ccc2n2c(N3CCCCCC3)nnc2n1Cc1ccc(Cl)cc1 [Compound 11, 1-(azepan-1-yl)-7-chloro-4-(4-chlorobenzyl)-4H-[1,2,4]triazolo[4,3-a]quinazolin-5-one]",80
3,"O=c1c2cc(Cl)ccc2n2c(N3CCCCCC3)nnc2n1Cc1ccc(F)cc1 [Compound 13, 1-(azepan-1-yl)-7-chloro-4-(4-fluorobenzyl)-4H-[1,2,4]triazolo[4,3-a]quinazolin-5-one]",60
4,"COc1ccc(Cn2c(=O)c3cc(Cl)ccc3n3c(N4CCCCCC4)nnc23)cc1OC [Compound 20, 1-(azepan-1-yl)-7-chloro-4-(3,4-dimethoxybenzyl)-4H-[1,2,4]triazolo[4,3-a]quinazolin-5-one]",40
5,"O=c1c2cc(Cl)ccc2n2c(N3CCCCCC3)nnc2n1Cc1cccnc1 [Compound 22, 1-(azepan-1-yl)-7-chloro-4-(3-pyridylmethyl)-4H-[1,2,4]triazolo[4,3-a]quinazolin-5-one]",410
6,"O=c1c2cc(Br)ccc2n2c(N3CCCCC3)nnc2n1CC=Cc1ccccc1 [Compound 76, 1-(piperidin-1-yl)-7-bromo-4-(3-phenylallyl)-4H-[1,2,4]triazolo[4,3-a]quinazolin-5-one]",70
7,"Cc1ccc2c(c1)c(=O)n(Cc1ccc(CC(=O)O)cc1)c1nnc(N(C)C)n21 [Compound 102, [4-(1-Dimethylamino-7-methyl-5-oxo-5H-[1,2,4]triazolo[4,3-a]quinazolin-4-ylmethyl)-phenyl]-acetic acid]",60
8,"O=c1c2cc(Br)ccc2n2c(N3CCCC3)nnc2n1Cc1ccccc1 [Compound 164, 4-benzyl-7-bromo-1-(pyrrolidin-1-yl)-4H-[1,2,4]triazolo[4,3-a]-quinazolin-5-one]",90

# Next, values leading:
row,IC50 [nM],Compound
1,48,"Nc1ccc(Cn2c(=O)c3cc(Br)ccc3n3c(N4CCCC4)nnc23)cc1 [Compound 218, 4-(4-Amino-benzyl)-7-bromo-1-pyrrolidin-1-yl-4H-[1,2,4]triazolo[4,3-a]quinazolin-5-one]"
2,12,"Nc1ccc2c(c1)c(=O)n(C/C=C/c1ccccc1)c1nnc(N3CCCC3)n21 [Compound 223, 7-Amino-4-((E)-3-phenyl-allyl)-1-pyrrolidin-1-yl-4H-[1,2,4]triazolo[4,3-a]quinazolin-5-one]"
3,2690,"CC(C)Nc1ccc2c(c1)c(=O)n(Cc1ccccc1)c1nnc(N3CCCC3)n21 [Compound 234, 4-Benzyl-7-isopropylamino-1-pyrrolidin-1-yl-4H-[1,2,4]triazolo[4,3-a]quinazolin-5-one]"
4,5,"COC(=O)Cc1ccc(Cn2c(=O)c3cc(Br)ccc3n3c(N4CCCC4)nnc23)cc1 [Compound 239, [4-(7-Bromo-5-oxo-1-pyrrolidin-1-yl-5H-[1,2,4]triazolo[4,3-a]quinazolin-4-ylmethyl)-phenyl]-acetic acid methyl ester]"
5,13,"CNC(=O)Cc1ccc(Cn2c(=O)c3cc(Br)ccc3n3c(N4CCCC4)nnc23)cc1 [Compound 240, 2-[4-(7-Bromo-5-oxo-1-pyrrolidin-1-yl-5H-[1,2,4]triazolo[4,3-a]quinazolin-4-ylmethyl)-phenyl]-N-methyl-acetamide]"

# Test system: not given
# Experiment: not given
# Conditions: not given
row,Compound,melting point [°C]
1,"O=c1c2cc(Cl)ccc2n2c(N3CCCCCC3)nnc2n1Cc1ccc(Cl)cc1 [Compound 11, 1-(azepan-1-yl)-7-chloro-4-(4-chlorobenzyl)-4H-[1,2,4]triazolo[4,3-a]quinazolin-5-one]",166
2,"O=c1c2cc(Cl)ccc2n2c(N3CCCCCC3)nnc2n1Cc1ccc(F)cc1 [Compound 13, 1-(azepan-1-yl)-7-chloro-4-(4-fluorobenzyl)-4H-[1,2,4]triazolo[4,3-a]quinazolin-5-one]",150
3,"COc1ccc(Cn2c(=O)c3cc(Cl)ccc3n3c(N4CCCCCC4)nnc23)cc1OC [Compound 20, 1-(azepan-1-yl)-7-chloro-4-(3,4-dimethoxybenzyl)-4H-[1,2,4]triazolo[4,3-a]quinazolin-5-one]",172
4,"O=c1c2cc(Cl)ccc2n2c(N3CCCCCC3)nnc2n1Cc1cccnc1 [Compound 22, 1-(azepan-1-yl)-7-chloro-4-(3-pyridylmethyl)-4H-[1,2,4]triazolo[4,3-a]quinazolin-5-one]",155
5,"COc1ccc2c(c1)c(=O)n(Cc1ccccc1)c1nnc(N3CCCC3)n21 [Compound 196, 4-Benzyl-7-methoxy-1-pyrrolidin-1-yl-4H-[1,2,4]triazolo[4,3-a]quinazolin-5-one]",154
6,"N#Cc1ccc2c(c1)c(=O)n(Cc1ccccc1)c1nnc(N3CCCC3)n21 [Compound 197, 4-Benzyl-5-oxo-1-pyrrolidin-1-yl-4,5-dihydro-[1,2,4]triazolo[4,3-a]quinazoline-7-carbonitrile]",219
7,"O=c1c2cc([N+](=O)[O-])ccc2n2c(N3CCCCCC3)nnc2n1Cc1ccccc1 [Compound 198, 1-Azepan-1-yl-4-benzyl-7-nitro-4H-[1,2,4]triazolo[4,3-a]quinazolin-5-one]",206
8,"Cn1c(=O)c2ccccc2n2c(N3CCCCCC3)nnc12 [Compound 200, 1-(azepan-1-yl)-4-methyl-4H-[1,2,4]triazolo[4,3-a]quinazolin-5-one]",199 to 203
9,"O=c1c2ccccc2n2c(N3CCCCCC3)nnc2n1Cc1ccccc1 [Compound 201, 1-(azepan-1-yl)-4-benzyl-4H-[1,2,4]triazolo[4,3-a]quinazolin-5-one]",157
10,"Cn1c(=O)c2c(Cl)cccc2n2c(N3CCCCCC3)nnc12 [Compound 202, 1-(azepan-1-yl)-6-chloro-4-methyl-4H-[1,2,4]triazolo[4,3-a]-quinazolin-5-one]",> 275
11,"Cn1c(=O)c2cc(Cl)ccc2n2c(N3CCCCCC3)nnc12 [Compound 203, 1-(azepan-1-yl)-7-chloro-4-methyl-4H-[1,2,4]triazolo[4,3-a]-quinazolin-5-one]",145

# Other lines, results leading:
row,melting point [°C],Compound
1,98 to 100,"CCn1c(=O)c2cc(Cl)ccc2n2c(N3CCCCCC3)nnc12 [Compound 204, 1-(azepan-1-yl)-7-chloro-4-ethyl-4H-[1,2,4]triazolo[4,3-a]-quinazolin-5-one]"
2,203 to 205,"Cn1c(=O)c2cc(Cl)ccc2n2c(N3CCCC3)nnc12 [Compound 205, 7-chloro-4-methyl-1-(pyrrolidin-1-yl)-4H-[1,2,4]triazolo[4,3-a]-quinazolin-5-one]"
3,232,"Cn1c(=O)c2cc(Cl)ccc2n2c(N3CCOCC3)nnc12 [Compound 206, 7-chloro-4-methyl-1-(morpholin-4-yl)-4H-[1,2,4]triazolo[4,3-a]-quinazolin-5-one]"
4,123 to 125,"Cn1c(=O)c2cc(Cl)ccc2n2c(N3CCCCCCC3)nnc12 [Compound 207, 1-(azocan-1-yl)-7-chloro-4methyl-4H-[1,2,4]triazolo[4,3-a]-quinazolin-5-one]"
5,204,"Cn1c(=O)c2cc(Cl)ccc2n2c(N3CCCc4ccccc43)nnc12 [Compound 208, 7-chloro-1-(3,4-dihydro-2H-quinolin-1-yl)-4-methyl-4H-[1,2,4]triazolo[4,3-a]quinazolin-5-one]"
6,272,"Cn1c(=O)c2cc(Cl)ccc2n2c(N3CCc4ccccc4C3)nnc12 [Compound 209, 7-chloro-1-(3,4-dihydro-1H-isoquinolin-2-yl)-4-methyl-4H-[1,2,4]triazolo[4,3-a]quinazolin-5-one]"
7,180,"Cn1c(=O)c2cc(Cl)ccc2n2c(N3CCC(Cc4ccccc4)CC3)nnc12 [Compound 210, 1-(4-benzylpiperidin-1-yl)-7chloro-4-methyl-4H-[1,2,4]triazolo[4,3-a]quinazolin-5-one]"
8,165,"Cn1c(=O)c2cc(Cl)ccc2n2c(N3CC4(C)CC3CC(C)(C)C4)nnc12 (stereo not drawn) [Compound 211, 7-chloro-4-methyl-1-(1,3,3-trimethyl-6-azabicyclo[3,2,1]oct-6yl)-4H-[1,2,4]triazolo[4,3-a]-quinazolin-5-one]"
9,136,"Cn1c(=O)c2cc(F)ccc2n2c(N3CCCCCC3)nnc12 [Compound 212, 1-(azepan-1-yl)-7-fluoro-4-methyl-4H-[1,2,4]triazolo[4,3-a]-quinazolin-5-one]"
10,206,"Cn1c(=O)c2cc(I)ccc2n2c(N3CCCCCC3)nnc12 [Compound 213, 1-(azepan-1-yl)-7-iodo-4-methyl-4H-[1,2,4]triazolo[4,3-a]-quinazolin-5-one]"
11,230,"Nc1ccc2c(c1)c(=O)n(Cc1ccccc1)c1nnc(N3CCCC3)n21 [Compound 225, 7-Amino-4-benzyl-1-pyrrolidin-1-yl-4H-[1,2,4]triazolo[4,3-a]quinazolin-5-one]"
12,152,"N#Cc1ccc(Cn2c(=O)c3cc(N)ccc3n3c(N4CCCC4)nnc23)cc1 [Compound 226, 4-(7-Amino-5-oxo-1-pyrrolidin-1-yl-5H-[1,2,4]triazolo[4,3-a]quinazolin-4-ylmethyl)-benzonitrile]"
13,163,"CN(C)c1nnc2n(Cc3ccc(C#N)cc3)c(=O)c3cc(N)ccc3n12 [Compound 228, 4-(7-Amino-1-dimethylamino-5-oxo-5H-[1,2,4]triazolo[4,3-a]quinazolin-4-ylmethyl)-benzonitrile]"
14,268,"CN(C)c1nnc2n(Cc3ccc(CC(N)=O)cc3)c(=O)c3cc(Br)ccc3n12 [Compound 241, 2-[4-(7-Bromo-1-dimethylamino-5-oxo-5H-[1,2,4]triazolo[4,3-a]quinazolin-4-ylmethyl)-phenyl]-acetamide]"
15,276,"CN(C)c1nnc2n(Cc3ccc(C#N)cc3)c(=S)c3cc(Br)ccc3n12 [Compound 245, 4-(7-Bromo-1-dimethylamino-5-thioxo-5H-[1,2,4]triazolo[4,3-a]quinazolin-4-ylmethyl)-benzonitrile]"

# Source: US6828315B1, “1-Amino triazoloc4,3-a! quinazoline-5-ones and/or -5-thiones inhibiting phosphodiesterase IV” (Warner-Lambert LLC, priority 1999, dated 2004)
